The text below walks through data of patent publication US20260022118A1, “HETEROCYCLIC COMPOUNDS AS NRAS INHIBITORS” (Board of Regents, The University of Texas System, priority 2023, published 2026).

The target in assay [1] is NRAS G12D C118S (Homo sapiens (Human), UniProt P01111, C118S/G12D). The assay can be described thus: NRas G12D Surface Plasmon Resonance (SPR) binding assay. The following applies: Avi-tagged biotinylated NRAS G12D C118S on streptavidin chip, 25° C., 1:1 kinetic or steady-state fit. The essentials: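 Biotinylated Avi-tagged NRAS G12D C118S was captured at about 600 RU on a streptavidin chip alongside a blank reference channel. Compounds were run as 10-point 1:3 dilution series in HBS-P+ pH 7.4 with 5 mM MgCl2 and 3% DMSO, using a 2–4% DMSO solvent correction. A control compound at 10 μM was injected periodically to check protein activity.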
Sequence of NRAS G12D C118S (P01111 whole entry G12D/C118S): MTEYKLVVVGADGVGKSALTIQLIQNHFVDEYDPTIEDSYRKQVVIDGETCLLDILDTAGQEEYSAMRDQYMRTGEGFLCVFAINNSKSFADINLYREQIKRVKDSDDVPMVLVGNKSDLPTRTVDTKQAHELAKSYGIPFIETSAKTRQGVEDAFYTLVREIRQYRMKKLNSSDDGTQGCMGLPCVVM

Assay [2] concerns THP-1 cells expressing G12D (NRAS G12D). Briefly: Inhibition of NRAS G12D-mediated phosphorylation of ERK (AlphaLISA p-ERK1/2) in THP-1 cells. Format: cell-based. As to conditions: Homo sapiens, THP-1, 2 h, 2 hours incubation, HBSS with 0% or 10% FBS, p-ERK1/2 (Thr202/Tyr204) AlphaLISA, read-out: pERK THP-1 IC50. In outline: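 THP-1 cells expressing NRAS G12D, seeded in HBSS with 0% or 10% FBS, were exposed to test compound (1% DMSO final) for 2 h. p-ERK1/2 (Thr202/Tyr204) read by AlphaLISA SureFire Ultra. IC50 from curves normalized to no-inhibitor (100%) and 1 μM trametinib (0%) controls.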

Usually Kd stands for the equilibrium constant for the complex coming apart. A high value points to weaker binding. One may read the IC50 as the point on the concentration scale where inhibition reaches its midpoint.

Consider `C#Cc1c(F)ccc2cc(O)cc(-c3nc(OC(F)F)c4c([C@H]5[C@@H]6CNC[C@@H]65)nn(C5CC5)c4c3F)c12` [Example 66, 4-(3-((1R,5S,6r)-3-azabicyclo[3.1.0]hexan-6-yl)-1-cyclopropyl-4-(difluoromethoxy)-7-fluoro-1H-pyrazolo[4,3-c]pyridin-6-yl)-5-ethynyl-6-fluoronaphthalen-2-ol], for which, in assay [1], the Kd is 114 nM. In assay [2], the concentration for half-maximal inhibition (IC50) was 1190 nM.
The compound `C#Cc1c(F)ccc2cc(O)cc(-c3nc(OCC(F)(F)F)c4c([C@H]5[C@@H]6CNC[C@@H]65)nn(C5CC5)c4c3F)c12` [Example 67, 4-(3-((1R,5S,6r)-3-azabicyclo[3.1.0]hexan-6-yl)-1-cyclopropyl-7-fluoro-4-(2,2,2-trifluoroethoxy)-1H-pyrazolo[4,3-c]pyridin-6-yl)-5-ethynyl-6-fluoronaphthalen-2-ol] registered a Kd in assay [1] of 114 nM. The IC50 in assay [2] came to 763 nM.
As for `C#Cc1c(F)ccc2cc(O)cc(-c3nc(OC4CC(F)(F)C4)c4c([C@H]5[C@@H]6CNC[C@@H]65)nn(C5CC5)c4c3F)c12` [Example 68, 4-(3-((1R,5S,6r)-3-azabicyclo[3.1.0]hexan-6-yl)-1-cyclopropyl-4-(3,3-difluorocyclobutoxy)-7-fluoro-1H-pyrazolo[4,3-c]pyridin-6-yl)-5-ethynyl-6-fluoronaphthalen-2-ol], the dissociation constant (Kd) in assay [1] was determined as 566 nM. In assay [2], the IC50 was found to be 2130 nM.
In turn, `C#Cc1c(F)ccc2cc(O)cc(-c3nc(OC4CNC4)c4c([C@H]5[C@@H]6CNC[C@@H]65)nn(C5CC5)c4c3F)c12` [Example 69, 4-(4-(azetidin-3-yloxy)-3-((1R,5S,6r)-3-azabicyclo[3.1.0]hexan-6-yl)-1-cyclopropyl-7-fluoro-1H-pyrazolo[4,3-c]pyridin-6-yl)-5-ethynyl-6-fluoronaphthalen-2-ol] showed a Kd in assay [1] of 1790 nM. In addition, the IC50 in assay [2] was greater than 10000 nM.
In the same order, the values of `C#Cc1c(F)ccc2cc(O)cc(-c3nc(OC4CC4)c4c([C@H]5[C@@H]6CNC[C@@H]65)nn(C5CC5)c4c3F)c12` [Example 70, 4-(3-((1R,5S,6r)-3-azabicyclo[3.1.0]hexan-6-yl)-4-cyclopropoxy-1-cyclopropyl-7-fluoro-1H-pyrazolo[4,3-c]pyridin-6-yl)-5-ethynyl-6-fluoronaphthalen-2-ol] are 33.3 nM and 169 nM.
Take `C#Cc1c(F)ccc2cc(O)cc(-c3nc(CC)c4c([C@H]5[C@@H]6CNC[C@@H]65)nn(C5CC5)c4c3F)c12` [Example 72, 4-(3-((1R,5S,6r)-3-azabicyclo[3.1.0]hexan-6-yl)-1-cyclopropyl-4-ethyl-7-fluoro-1H-pyrazolo[4,3-c]pyridin-6-yl)-5-ethynyl-6-fluoronaphthalen-2-ol]: in assay [1], the Kd was determined as 0.594 nM. The concentration for half-maximal inhibition (IC50) in assay [2] turned out to be 24.4 nM.
On to `C#Cc1c(F)ccc2cc(O)cc(-c3nc(CC(C)C)c4c([C@H]5[C@@H]6CNC[C@@H]65)nn(C5CC5)c4c3F)c12` [Example 73, 4-(3-((1R,5S,6r)-3-azabicyclo[3.1.0]hexan-6-yl)-1-cyclopropyl-7-fluoro-4-isobutyl-1H-pyrazolo[4,3-c]pyridin-6-yl)-5-ethynyl-6-fluoronaphthalen-2-ol], for which binding in assay [1] was put at a Kd of 212 nM. In addition, the IC50 in assay [2] was found to be 1300 nM.
In the case of `C#Cc1c(F)ccc2cc(O)cc(-c3nc(C(C)C)c4c([C@H]5[C@@H]6CNC[C@@H]65)nn(C5CC5)c4c3F)c12` [Example 74, 4-(3-((1R,5S,6r)-3-azabicyclo[3.1.0]hexan-6-yl)-1-cyclopropyl-7-fluoro-4-isopropyl-1H-pyrazolo[4,3-c]pyridin-6-yl)-5-ethynyl-6-fluoronaphthalen-2-ol], the Kd in assay [1] came to 0.141 nM. The IC50 in assay [2] was determined as 9.56 nM.
In the same order, the values of `C#Cc1c(F)ccc2cc(O)cc(-c3nc(N(C)C(C)C)c4c([C@H]5[C@@H]6CNC[C@@H]65)nn(C5CC5)c4c3F)c12` [Example 75, 4-(3-((1R,5S,6r)-3-azabicyclo[3.1.0]hexan-6-yl)-1-cyclopropyl-7-fluoro-4-(isopropyl(methyl)amino)-1H-pyrazolo[4,3-c]pyridin-6-yl)-5-ethynyl-6-fluoronaphthalen-2-ol] are 25 nM and 248 nM.
In the same order, the values of `C#Cc1c(F)ccc2cc(O)cc(-c3nc(NC)c4c([C@H]5[C@@H]6CNC[C@@H]65)nn(C5CC5)c4c3F)c12` [Example 76, 4-(3-((1R,5S,6r)-3-azabicyclo[3.1.0]hexan-6-yl)-1-cyclopropyl-7-fluoro-4-(methylamino)-1H-pyrazolo[4,3-c]pyridin-6-yl)-5-ethynyl-6-fluoronaphthalen-2-ol] are 28.3 nM and 547 nM.
On to `C#Cc1c(F)ccc2cc(O)cc(-c3nc(NC(C)C)c4c([C@H]5[C@@H]6CNC[C@@H]65)nn(C5CC5)c4c3F)c12` [Example 77, 4-(3-((1R,5S,6r)-3-azabicyclo[3.1.0]hexan-6-yl)-1-cyclopropyl-7-fluoro-4-(isopropylamino)-1H-pyrazolo[4,3-c]pyridin-6-yl)-5-ethynyl-6-fluoronaphthalen-2-ol], for which binding in assay [1] was characterised by a dissociation constant (Kd) of 17.9 nM. In addition, in assay [2], the concentration for half-maximal inhibition (IC50) is 258 nM.
For `C#Cc1c(F)ccc2cc(O)cc(-c3nc(Nc4ccccc4)c4c([C@H]5[C@@H]6CNC[C@@H]65)nn(C5CC5)c4c3F)c12` [Example 83, 4-(3-((1R,5S,6r)-3-azabicyclo[3.1.0]hexan-6-yl)-1-cyclopropyl-7-fluoro-4-(phenylamino)-1H-pyrazolo[4,3-c]pyridin-6-yl)-5-ethynyl-6-fluoronaphthalen-2-ol], the Kd in assay [1] worked out at 49.5 nM. The IC50 in assay [2] turned out to be 205 nM.
In the same order, the values of `C#Cc1c(F)ccc2cc(O)cc(-c3ncc4c(N5CC6CCC(C5)N6)cn(C5CC5)c4c3F)c12` [Example 85, 4-(3-(3,8-diazabicyclo[3.2.1]octan-3-yl)-1-cyclopropyl-7-fluoro-1H-pyrrolo[3,2-c]pyridin-6-yl)-5-ethynyl-6-fluoronaphthalen-2-ol] are 336 nM and 1710 nM.
As to `C#Cc1c(F)ccc2cc(O)cc(-c3ncc4c(N5C[C@@H]6CC[C@H]5CN6)cn(C5CC5)c4c3F)c12` [Example 86, 4-(3-((1S,4S)-2,5-diazabicyclo[2.2.2]octan-2-yl)-1-cyclopropyl-7-fluoro-1H-pyrrolo[3,2-c]pyridin-6-yl)-5-ethynyl-6-fluoronaphthalen-2-ol], the Kd in assay [1] worked out at 151 nM. In addition, the half-maximal inhibitory concentration (IC50) in assay [2] came to 767 nM.
In the case of `C#Cc1c(F)ccc2cc(N)cc(-c3nc(CC)c4c([C@H]5[C@@H]6CNC[C@@H]65)nn(C5CC5)c4c3F)c12` [Example 88, 4-(3-((1R,5S,6r)-3-azabicyclo[3.1.0]hexan-6-yl)-1-cyclopropyl-4-ethyl-7-fluoro-1H-pyrazolo[4,3-c]pyridin-6-yl)-5-ethynyl-6-fluoronaphthalen-2-amine], binding in assay [1] was characterised by a dissociation constant (Kd) of 4.58 nM. Moreover, in assay [2], the IC50 is 227 nM.
In assay [1], `C#Cc1c(F)ccc2cc(O)cc(-c3nc(CC)c4c(N5C[C@@H]6CC[C@H]5CN6)nn(C5CC5)c4c3F)c12` [Example 90, 4-(3-((1S,4S)-2,5-diazabicyclo[2.2.2]octan-2-yl)-1-cyclopropyl-4-ethyl-7-fluoro-1H-pyrazolo[4,3-c]pyridin-6-yl)-5-ethynyl-6-fluoronaphthalen-2-ol] came in with a Kd of 107 nM. In addition, the concentration for half-maximal inhibition (IC50) in assay [2] is 888 nM.
In turn, `C#Cc1c(F)ccc2cc(O)cc(-c3nc(OC)c4c(N5C[C@@H]6CC[C@H]5CN6)nn(C5CC5)c4c3F)c12` [Example 91, 4-(3-((1S,4S)-2,5-diazabicyclo[2.2.2]octan-2-yl)-1-cyclopropyl-7-fluoro-4-methoxy-1H-pyrazolo[4,3-c]pyridin-6-yl)-5-ethynyl-6-fluoronaphthalen-2-ol] returned a Kd in assay [1] of 146 nM. Besides, the IC50 in assay [2] was found to be 1650 nM.
As for `C#Cc1c(F)ccc2cc(O)cc(-c3ncc4c([C@H]5[C@@H]6CNC(C(=O)OC)[C@@H]65)nn(C)c4c3F)c12` (stereo partly drawn) [Example 96, methyl (1S,5R,6S)-6-(6-(8-ethynyl-7-fluoro-3-hydroxynaphthalen-1-yl)-7-fluoro-1-methyl-1H-pyrazolo[4,3-c]pyridin-3-yl)-3-azabicyclo[3.1.0]hexane-2-carboxylate], the Kd in assay [1] came to 904 nM. In addition, in assay [2], the IC50 stood at 360 nM.
In the same order, the values of `C#Cc1c(F)ccc2cc(O)cc(-c3ncc4c([C@H]5[C@@H]6CNC(CO)[C@@H]65)nn(C)c4c3F)c12` (stereo partly drawn) [Example 97, 5-ethynyl-6-fluoro-4-(7-fluoro-3-((1S,5R,6S)-2-(hydroxymethyl)-3-azabicyclo[3.1.0]hexan-6-yl)-1-methyl-1H-pyrazolo[4,3-c]pyridin-6-yl)naphthalen-2-ol] are 190 nM and 2220 nM.
In assay [1], `C#Cc1c(F)ccc2cc(O)cc(-c3nc(OCC(C)C)c4c([C@H]5[C@@H]6CNC[C@@H]65)nn(C5CC5)c4c3F)c12` [Example 100, 4-(3-((1R,5S,6r)-3-azabicyclo[3.1.0]hexan-6-yl)-1-cyclopropyl-7-fluoro-4-isobutoxy-1H-pyrazolo[4,3-c]pyridin-6-yl)-5-ethynyl-6-fluoronaphthalen-2-ol] came in with a dissociation constant (Kd) of 704 nM. Besides, the 50% inhibitory concentration (IC50) in assay [2] worked out at 1760 nM.
